Results from USRE34918E, “Azaazulene compounds which are useful as antiallergic and antiinflammatory agents” (Kaken Pharmaceutical Co., Ltd., priority 1988, dated 1995).
≈ marks a conversion by molar mass, not a printed value.

What was measured:
[1] = system: smooth musculus trachealis; assay: Relaxant activity of smooth musculus trachealis in guinea pig; parameters: species or system guinea pig (male Hartley); details: Cavia porcellus; tracheal chain strips, 37° C.; read-out: Concentration for 50% relaxation
Procedure: Male Hartley guinea pigs weighing 350 to 550 g were bleed to death, and immediately the tracheae were extirpated. According to the method of Takagi et al [cf. Chem. Pharm. Bull., 8, 716 (1958)], tracheal chain strips was prepared, and the sample was suspended on Magnus apparatus under addition of load of 0.5 g. The test was carried out at 37° C. of liquid temperature. After position of tonus was examined with histamine (10^-6 g/ml) and isoproterenol (10^-7 g/ml), the test compound dissolved in a mixture of dimethyl sulfoxide and physiological saline was added thereto, and the test compound was investigated with respect to the effect on smooth musculus trachealis. Theophylline was used as a positive comparative drug. The relaxation and the contraction of smooth musculus trachealis were recorded on servocorder (SR 6342: commercially available from Watanabe Instruments Corp.) by connecting Isotonic Transducer (TD-1125: commercially available from Nihon Kohden Kogyo Co., Ltd.) to a balancing box.

Acute toxicity in mouse = type: in vivo; details: 2 weeks observation
Procedure: The test was carried out with the compounds obtained in Examples 5 and 9. Groups of 5 male ddy mice weighing 26 to 28 g were employed. The test compounds were suspended in a 0.5% CMC aqueous solution and the resulting suspension was administered orally in an amount of 500 for the compound obtained in Example 9, 1000 or 2000 mg/kg body weight. The survivors were kept under observation daily for 2 weeks. From the results shown in Table 6, the LD50 of the compounds obtained in Example 5 and 9 were estimated to be more than 2000 mg/kg. The other compounds of the present invention also had the same toxicity as the above compounds.

5-lipoxygenase = target: T1, 5-lipoxygenase (Cavia porcellus, UniProt A0A286X958); assay: 5-lipoxygenase inhibiting activity in guinea pig; type: biochemical; details: read-out: Inhibition rate against 5-lipoxygenase activity
T1 construct: 5-lipoxygenase was prepared with polymorphonuclear leukocyte obtained from peritoneal cavity; endogenous in cells; host or cells: guinea pig peritoneal polymorphonuclear leukocytes (casein-elicited)
T1 sequence (A0A286X958 1-674): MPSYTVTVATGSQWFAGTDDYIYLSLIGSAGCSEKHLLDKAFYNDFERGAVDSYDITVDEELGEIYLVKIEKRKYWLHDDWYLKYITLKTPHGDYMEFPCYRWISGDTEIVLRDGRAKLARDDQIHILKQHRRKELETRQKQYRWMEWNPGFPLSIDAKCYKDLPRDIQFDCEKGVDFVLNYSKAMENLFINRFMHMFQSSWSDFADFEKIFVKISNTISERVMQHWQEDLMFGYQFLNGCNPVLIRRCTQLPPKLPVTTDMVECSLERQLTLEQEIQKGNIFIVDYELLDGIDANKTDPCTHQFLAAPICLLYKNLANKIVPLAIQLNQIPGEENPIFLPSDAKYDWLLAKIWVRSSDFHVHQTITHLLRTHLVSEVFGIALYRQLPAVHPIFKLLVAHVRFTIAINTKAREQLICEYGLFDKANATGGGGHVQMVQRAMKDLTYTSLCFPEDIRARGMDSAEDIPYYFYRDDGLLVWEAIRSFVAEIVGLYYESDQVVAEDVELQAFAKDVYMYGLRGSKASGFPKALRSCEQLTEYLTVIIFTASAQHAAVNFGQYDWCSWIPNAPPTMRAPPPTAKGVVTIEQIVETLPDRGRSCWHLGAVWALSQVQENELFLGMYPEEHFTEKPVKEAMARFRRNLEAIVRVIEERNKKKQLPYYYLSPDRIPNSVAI

[2] = system: histamine release from rat mast cell; assay: Inhibitory activity against histamine release from rat mast cell; type: cell-based; details: 10 μg/ml, read-out: Inhibitory rate against histamine release

CC(C)c1cccc2n(Cc3ccc(F)cc3)c(=O)c(-c3nnn[nH]3)c-2c1 [Example 9, 1-(4-Fluorobenzyl)-5-iso-propyl-3-(5-tetrazolyl)-1-azaazulane-2-one]
EC50 [1]: 8.6 µg/mL (≈ 23.7 µM)
Mortality (Acute toxicity in mouse; 500 mg/kg p.o.): 0/5
Mortality (Acute toxicity in mouse; 1000 mg/kg p.o.): 0/5
Mortality (Acute toxicity in mouse; 2000 mg/kg p.o.): 0/5
LD50 at 336 h (Acute toxicity in mouse; mouse, in vivo, oral): > 2000 mg/kg
inhibition at 10 µM (5-lipoxygenase): -5.4%
inhibition at 10 µg/mL [2]: 99.8%
